Data from patent publication US20240270821A1, “GIP/GLP1/GCG TRI-RECEPTOR AGONISTS AND USES THEREOF” (priority 2023, published 2024).
Read-outs that look alike come from different tables or passages of the source. Starred links: 1 amine or outer side, 2 acyl side, 3 side chain; linkers in the order of their positions; H or OH if unused. Non-standard residues stand in square brackets, D forms with d. Residues, ends and D or L forms follow the SMILES beside them. Groups on a side chain read outwards from the residue. No end group written: not given here. *: point of attachment. C20 diacid = O=C(O)CCCCCCCCCCCCCCCCCCC(=O)*; C18 diacid = O=C(O)CCCCCCCCCCCCCCCCC(=O)*; Phe(4-CN) = N#Cc1ccc(C[C@H](N)C(=O)O)cc1; αMePhe(2-F) = C[C@](N)(Cc1ccccc1F)C(=O)O; γGlu = O=C(O)[C@H](CCC(=O)[*:2])N[*:1]; αMe4Pal = C[C@](N)(Cc1ccncc1)C(=O)O; αMeY = C[C@](N)(Cc1ccc(O)cc1)C(=O)O; 4Pal = N[C@@H](Cc1ccncc1)C(=O)O; αMeL = CC(C)C[C@](C)(N)C(=O)O; αMeS = C[C@](N)(CO)C(=O)O; Orn = NCCC[C@H](N)C(=O)O; AEEA = NCCOCCOCC(=O)O; Aib = CC(C)(N)C(=O)O

What was measured:
Format in all cases: cell-based
hGIPR [1] = biological target: T1, hGIPR (Homo sapiens, UniProt P48546); assay: Functional cAMP activation in the presence of 0.1% casein (no HSA); conditions: read-out: Relative cAMP EC50, hGIPR;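 further: intracellular cAMP rise after 30 min at 37 °C read by HTRF against a standard curve, scaled between buffer alone (0%) and top control ligand concentration (100%), four-parameter fit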
T1 sequence (P48546 22-466): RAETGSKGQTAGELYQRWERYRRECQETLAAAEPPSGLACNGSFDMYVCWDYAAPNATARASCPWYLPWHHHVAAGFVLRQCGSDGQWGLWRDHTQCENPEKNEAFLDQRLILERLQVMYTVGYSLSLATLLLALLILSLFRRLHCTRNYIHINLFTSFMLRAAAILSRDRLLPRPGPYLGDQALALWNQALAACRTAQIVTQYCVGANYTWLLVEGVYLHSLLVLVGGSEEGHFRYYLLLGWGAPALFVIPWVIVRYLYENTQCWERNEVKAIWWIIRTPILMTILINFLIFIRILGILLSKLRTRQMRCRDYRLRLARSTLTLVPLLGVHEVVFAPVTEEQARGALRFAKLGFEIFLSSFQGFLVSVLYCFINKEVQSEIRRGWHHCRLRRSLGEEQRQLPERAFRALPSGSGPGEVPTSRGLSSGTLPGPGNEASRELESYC

human GcgR = human GcgR (Homo sapiens, UniProt P47871); assay: Functional cAMP activity in the presence of 1% HSA; conditions: read-out: cAMP Rel EC50, hGcgR
Chain of human GcgR (P47871 26-477): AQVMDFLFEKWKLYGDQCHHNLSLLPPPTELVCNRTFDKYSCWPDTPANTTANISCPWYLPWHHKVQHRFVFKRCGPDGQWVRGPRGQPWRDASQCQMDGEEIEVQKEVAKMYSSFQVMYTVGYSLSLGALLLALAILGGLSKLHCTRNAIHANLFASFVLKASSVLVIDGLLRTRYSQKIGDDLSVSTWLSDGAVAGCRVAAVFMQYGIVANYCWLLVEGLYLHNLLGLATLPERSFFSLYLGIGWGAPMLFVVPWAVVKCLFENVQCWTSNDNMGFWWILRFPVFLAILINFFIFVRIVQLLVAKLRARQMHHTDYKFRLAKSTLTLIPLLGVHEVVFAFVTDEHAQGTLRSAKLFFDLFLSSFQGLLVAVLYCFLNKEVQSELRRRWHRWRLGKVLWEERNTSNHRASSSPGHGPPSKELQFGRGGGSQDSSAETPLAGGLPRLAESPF

hGIPR [2] = biological target: T1, hGIPR; assay: Functional cAMP activity in the presence of 1% HSA; conditions: read-out: cAMP Rel EC50, hGIPR
hGLP-1R [3] = biological target: T2, hGLP-1R (Homo sapiens, UniProt P43220); assay: Functional cAMP activity in the presence of 1% HSA; conditions: read-out: cAMP Rel EC50, hGLP-1R
T2 sequence (P43220 24-463): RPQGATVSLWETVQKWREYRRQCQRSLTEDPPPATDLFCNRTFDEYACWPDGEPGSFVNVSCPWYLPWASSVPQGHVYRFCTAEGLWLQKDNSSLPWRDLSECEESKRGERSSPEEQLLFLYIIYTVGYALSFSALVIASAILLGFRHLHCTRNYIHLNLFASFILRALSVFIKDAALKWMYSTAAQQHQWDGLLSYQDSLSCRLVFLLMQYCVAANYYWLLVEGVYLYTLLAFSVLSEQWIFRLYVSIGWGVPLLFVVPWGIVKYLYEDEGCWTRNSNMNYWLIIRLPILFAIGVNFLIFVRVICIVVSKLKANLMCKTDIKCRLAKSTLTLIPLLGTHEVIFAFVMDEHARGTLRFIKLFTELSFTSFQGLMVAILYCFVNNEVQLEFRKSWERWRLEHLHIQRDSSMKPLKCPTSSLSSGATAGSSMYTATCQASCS

hGLP-1R [4] = biological target: T2, hGLP-1R; assay: Functional cAMP activation in the presence of 0.1% casein (no HSA); conditions: read-out: Relative cAMP EC50, hGLP-1R;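 on Relative cAMP EC50, hGLP-1R: intracellular cAMP rise after 30 min at 37 °C read by HTRF, normalized between buffer only (0%) and maximal control ligand (100%), four-parameter variable-slope fit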;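 on Relative cAMP EC50, hGcgR: intracellular cAMP rise after 30 min at 37 °C, read by HTRF against a cAMP standard curve, scaled from buffer only (0%) to maximal control ligand response (100%)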
hGcgR = hGcgR (Homo sapiens, UniProt P47871); assay: as above; conditions: read-out: Relative cAMP EC50, hGcgR;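 further: intracellular cAMP rise after 30 min at 37 °C, read by HTRF against a cAMP standard curve, scaled from buffer only (0%) to maximal control ligand response (100%)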
Chain of hGcgR (P47871 26-477): as the sequence (P47871 26-477) above

[5] = in the presence of 0.1% casein (no HSA), geometric mean of relative EC50
[6] = HEK-293 clonal cell line, 1% HSA, geometric mean of relative EC50
[7] = in the presence of 0.1% casein (no HSA), geometric mean

Row | Molecule | EC50 (hGIPR [1]) [nM] | EC50 (human GcgR) [nM] | EC50 (hGIPR [2]) [nM] | EC50 (hGLP-1R [3]) [nM] | EC50 (hGLP-1R [4]) [nM] | EC50 (hGcgR) [nM] | EC50 (hGIPR [1]; [5]) [nM] | EC50 (human GcgR; [6]) [nM] | EC50 (hGIPR [2]; [6]) [nM] | EC50 (hGLP-1R [3]; [6]) [nM] | EC50 (hGLP-1R [4]; [5]) [nM] | EC50 (hGcgR; [5]) [nM] | EC50 (hGIPR [1]; [7]) [nM] | EC50 (hGLP-1R [4]; [7]) [nM] | EC50 (hGcgR; [7]) [nM]
1 | CC[C@H](C)[C@H](NC(=O)[C@H](Cc1ccccc1)NC(=O)[C@H](C)NC(=O)C(C)(C)NC(=O)[C@H](CCC(N)=O)NC(=O)[C@H](C)NC(=O)[C@H](CCCCNC(=O)COCCOCCNC(=O)CC[C@H](NC(=O)CCCCCCCCCCCCCCCCC(=O)O)C(=O)O)NC(=O)[C@H](CCCCN)NC(=O)[C@H](CC(=O)O)NC(=O)[C@H](CC(C)C)NC(=O)[C@H](CC(C)C)NC(=O)[C@@H](NC(=O)[C@H](CO)NC(=O)[C@H](Cc1ccc(O)cc1)NC(=O)[C@H](CC(=O)O)NC(=O)[C@H](CO)NC(=O)[C@@H](NC(=O)[C@](C)(Cc1ccccc1F)NC(=O)[C@@H](NC(=O)CNC(=O)[C@H](CCC(N)=O)NC(=O)C(C)(C)NC(=O)[C@@H](N)Cc1ccc(O)cc1)[C@@H](C)O)[C@@H](C)O)[C@@H](C)CC)C(=O)N[C@@H](CCC(=O)O)C(=O)N[C@@H](Cc1ccc(O)cc1)C(=O)N[C@@H](CC(C)C)C(=O)N[C@@H](CCC(=O)O)C(=O)N[C@@H](CCC(=O)O)C(=O)NCC(=O)NCC(=O)N1CCC[C@H]1C(=O)N[C@@H](CO)C(=O)N[C@@H](CO)C(=O)NCC(=O)N[C@@H](CCC(=O)O)C(=O)N1CCC[C@H]1C(=O)N1CCC[C@H]1C(=O)N1CCC[C@H]1C(=O)N[C@@H](CO)C(N)=O [Example 407] | 0.0362 | 485 | 11.7 | 37.2 | 0.259 | 1.49 | – | – | – | – | – | – | – | – | –
2 | H-Y[Aib]QGT[αMePhe(2-F)]TSD[4Pal][αMeS]I[αMeL]LD[Orn]K([AEEA-γGlu-C18 diacid])AA[Aib]EFI[dE][αMeY]LIEGGPSSGAPPPSGEE-NH2 [Example 703] | – | – | – | – | – | – | 0.0101 | 201 | 0.961 | 27.1 | 0.233 | 1.56 | – | – | –
3 | CC[C@H](C)[C@H](NC(=O)[C@H](CC(C)C)NC(=O)[C@](C)(Cc1ccc(O)cc1)NC(=O)[C@@H](CCC(=O)O)NC(=O)[C@@H](NC(=O)[C@H](Cc1ccccc1)NC(=O)[C@H](CCCN)NC(=O)C(C)(C)NC(=O)[C@H](CCC(N)=O)NC(=O)[C@H](C)NC(=O)[C@H](CCCCNC(=O)COCCOCCNC(=O)CC[C@H](NC(=O)CCCCCCCCCCCCCCCCC(=O)O)C(=O)O)NC(=O)[C@H](CCCN)NC(=O)[C@H](CC(=O)O)NC(=O)[C@H](CC(C)C)NC(=O)[C@](C)(CC(C)C)NC(=O)[C@@H](NC(=O)[C@](C)(CO)NC(=O)[C@H](Cc1ccncc1)NC(=O)[C@H](CC(=O)O)NC(=O)[C@H](CO)NC(=O)[C@@H](NC(=O)[C@](C)(Cc1ccccc1F)NC(=O)[C@@H](NC(=O)CNC(=O)[C@H](CCC(N)=O)NC(=O)C(C)(C)NC(=O)[C@@H](N)Cc1ccc(O)cc1)[C@@H](C)O)[C@@H](C)O)[C@@H](C)CC)[C@@H](C)CC)C(=O)N[C@@H](CCC(=O)O)C(=O)NCC(=O)NCC(=O)N1CCC[C@H]1C(=O)N[C@@H](CO)C(=O)N[C@@H](CO)C(=O)NCC(=O)N[C@@H](CCC(=O)O)C(=O)N1CCC[C@H]1C(=O)N[C@@H](CCC(=O)O)C(=O)N1CCC[C@H]1C(=O)N[C@@H](CCC(=O)O)C(N)=O [Example 461] (H-Y[Aib]QGT[αMePhe(2-F)]TSD[4Pal][αMeS]I[αMeL]LD[Orn]K([AEEA-γGlu-C18 diacid])AQ[Aib][Orn]FI[dE][αMeY]LIEGGPSSGEPEPE-NH2) | 0.0171 | 131 | 2.51 | 12 | 0.194 | 1.53 | – | – | – | – | – | – | – | – | –
4 | H-Y[Aib]QGTFTSD[4Pal]SQ[αMeL]LDKK([AEEA-γGlu-C18 diacid])AQ[Aib]AFIE[αMeY]LLEGGPSSGAPPPSGS-NH2 [Example 910] | – | 2640 | 25.7 | 239 | – | – | – | – | – | – | – | – | 0.111 | 1.49 | 9.76
5 | H-Y[Aib]QGT[αMePhe(2-F)]TSD[4Pal]SILLDKK([γGlu-γGlu-C18 diacid])AQ[Aib]AFIEYLQEGGPSSGAPPPSGTE-NH2 [Example 553] | 0.0371 | 523 | 2.97 | 51 | 0.398 | 4.53 | – | – | – | – | – | – | – | – | –
6 | H-Y[Aib]QGT[αMePhe(2-F)]TSD[4Pal]SILLD[Orn]K([γGlu-γGlu-C18 diacid])AQ[Aib][Orn]FIE[αMeY]LEEGGPSSGAPPPSGTGE-NH2 [Example 674] | 0.0264 | 168 | 2.54 | 17.3 | 0.21 | 2.09 | – | – | – | – | – | – | – | – | –
7 | Y[Aib]QGT[αMePhe(2-F)]TSD[4Pal]SI[αMeL]LD[Orn]K([AEEA-γGlu-C18 diacid])AQ[αMe4Pal][Orn]FI[dE][αMeY]LIEGGPSSGDPPPEAE-NH2 [Example 728] | 0.0116 | 298 | 1.45 | 26.7 | 0.277 | 2.45 | – | – | – | – | – | – | – | – | –
8 | H-Y[Aib]QGT[αMePhe(2-F)]TSD[4Pal][αMeS]I[αMeL]LD[Orn]K([γGlu-γGlu-C18 diacid])AQ[αMe4Pal]EFI[dE][αMeY]LVEGGPSSGEPPPSGE-NH2 [Example 1161] | – | 217 | 0.733 | 35.5 | – | – | – | – | – | – | – | – | 0.00973 | 0.39 | 2.19
9 | H-Y[Aib]QGT[αMePhe(2-F)]TSD[4Pal]SI[αMeL]LD[Orn]K([γGlu-γGlu-C18 diacid])AQ[αMe4Pal][Orn]FI[dE][αMeY]LIEGGPSSGEPPPEGTE-NH2 [Example 687] | 0.00903 | 157 | 0.595 | 21.3 | 0.277 | 2.41 | – | – | – | – | – | – | – | – | –
10 | H-Y[Aib]QGTFTSDFS[Orn][αMeL]LDKK([γGlu-AEEA-γGlu-C18 diacid])AQ[Aib]AFIEYLLE[Aib]GPSSGAPPPSG[4Pal]-NH2 [Example 277] | – | 1690 | 13.3 | 639 | – | – | – | – | – | – | – | – | 0.0672 | 5.56 | 10.6
11 | H-Y[Aib]QGTFTSDFS[Orn][αMeL]LDKK([AEEA-γGlu-C18 diacid])AQ[Aib]AFIEYLLAGGPSSGAPPPSGS[AEEA]-NH2 [Example 89] | – | 916 | 19.3 | 458 | – | – | – | – | – | – | – | – | 0.167 | 3.31 | 11.6
12 | H-Y[Aib]QGT[αMePhe(2-F)]TSD[Phe(4-CN)]SILLDKQAQK([AEEA-γGlu-γGlu-C20 diacid])AFIEYLLEGGPSSGEPPPSEG-NH2 [Example 352] | – | 4020 | 34.1 | 407 | – | – | – | – | – | – | – | – | 0.245 | 0.967 | 16.4
13 | Y[Aib]QGT[αMePhe(2-F)]TSD[4Pal][αMeS]I[αMeL]LD[Orn]K([γGlu-γGlu-C18 diacid])AQ[αMe4Pal]EFI[dE][αMeY]LIEGGPSSGEPPPEGGGE-NH2 [Example 762] | 0.00882 | 119 | 0.692 | 27.6 | 0.273 | 3.09 | – | – | – | – | – | – | – | – | –
14 | H-Y[Aib]QGT[αMePhe(2-F)]TSD[4Pal]SI[αMeL]LD[Orn]K([AEEA-γGlu-C18 diacid])AQ[αMe4Pal][Orn]FI[dE][αMeY]LIEGGPSSGEPPPSGS-NH2 [Example 706] | 0.00911 | 240 | 0.913 | 23.7 | 0.19 | 2.18 | – | – | – | – | – | – | – | – | –
15 | H-Y[Aib]QGT[αMePhe(2-F)]TSD[4Pal]SILLD[Orn]K([γGlu-γGlu-C18 diacid])AQ[Aib]AFIE[αMeY]LEEGGPSSGAPPPSGTGE-NH2 [Example 665] | 0.0223 | 285 | 2.1 | 32.8 | 0.284 | 2.94 | – | – | – | – | – | – | – | – | –
16 | H-Y[Aib]QGTFTSD[4Pal]S[Orn][αMeL]LD[Orn]K([γGlu-γGlu-C18 diacid])AQ[αMe4Pal]AFIEYLLAGGPSSGAPPPSGSEE-NH2 [Example 1068] | – | 295 | 20.2 | 1330 | – | – | – | – | – | – | – | – | 0.211 | 11.6 | 4.8
17 | H-Y[Aib]QGTFTSDFSK[αMeL]LDKK([AEEA-γGlu-C18 diacid])AQ[Aib]AFIEYLIEGGESSGAPPPSGS-NH2 [Example 215] | – | 1510 | 87.3 | 162 | – | – | – | – | – | – | – | – | 0.418 | 0.803 | 9.77
